{
  "source": "paper PMC5471252",
  "about": "“Anti-leukemia activity of a Hsp70 inhibitor and its hybrid molecules” (Scientific Reports, 2017)",
  "key": {"U937 cells": {"tested_on": "U937 cells", "test": "MTT assay, cell viability of U937 cells", "type": "cell-based", "details": "Homo sapiens, U-937, 48 h, mean ± s.d., n = 3, read-out: IC50 values of compounds for leukemia cells"}, "[1]": {"tested_on": "human leukemia cells (HL-60, KG-1, THP-1, U937, Jurkat and K562 cells)", "test": "MTT assay, all tested leukemia cells (summary statements)", "details": "Homo sapiens, 48 h, read-out: IC50 values, cytotoxic activities toward all the tested leukemia", "description": "To assess anti-leukemia activity of Az, several human leukemia cells (HL-60 cells, acute myeloid leukemia; Jurkat cells, acute T-lymphocytic leukemia; KG-1 cells, acute myeloid leukemia; U937 cells, acute myeloid leukemia; THP-1 cells, acute monocytic leukemia; K562 cells, chronic myeloid leukemia) were incubated with Az for 48 h. […] An MTT assay was then performed to measure cell viabilities.\n(§1) Cells were exposed to each compound (a HCl salt form) at various concentrations for indicated time periods (24 or 48 h) in culture media. MTT assays were conducted according to known procedures. The absorbance at 570 nm was determined by employing a microplate reader (TECAN, Infinite® 200 PRO)."}, "[2]": {"target": "T1, ATPase domain (1-386 residues) of human Hsc70 (Homo sapiens, UniProt P11142)", "T1 construct": "pET28a-human Hsc70 ATPase domain (1-386 residues); inferred from the pET28a vector and nickel-column purification; made in house; host or cells: E. coli BL21 (DE3)", "T1 sequence (P11142 1-386)": "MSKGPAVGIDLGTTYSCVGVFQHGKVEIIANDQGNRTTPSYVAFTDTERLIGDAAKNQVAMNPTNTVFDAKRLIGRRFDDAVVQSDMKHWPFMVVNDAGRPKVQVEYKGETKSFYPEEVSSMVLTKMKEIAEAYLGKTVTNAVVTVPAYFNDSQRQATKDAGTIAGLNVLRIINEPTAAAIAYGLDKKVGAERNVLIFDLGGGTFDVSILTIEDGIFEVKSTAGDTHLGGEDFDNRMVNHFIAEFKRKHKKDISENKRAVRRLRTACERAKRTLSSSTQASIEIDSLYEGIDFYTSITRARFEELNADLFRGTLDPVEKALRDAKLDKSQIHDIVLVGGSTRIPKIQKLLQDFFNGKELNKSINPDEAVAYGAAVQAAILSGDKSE", "test": "STD NMR competition with ATP-γ-S", "type": "binding", "details": "ATP-γ-S in place of ATP, Az phosphate salt form", "description": "However, the detailed mode of Az binding to the proteins has not been elucidated. To gain information about the molecular basis of Az binding to Hsp70 proteins, NMR studies were carried out on a complex of Az with an ATPase domain (1-386 residues) of human Hsc70. Saturation transfer difference (STD) NMR studies were conducted initially to obtain information on Az binding to the ATPase domain of Hsc70[30]. […] Next, we evaluated whether Az affects binding of ATP to the ATPase domain. For STD experiments, less hydrolytic ATP-γ-S was used in place of ATP.\nFor STD experiments, 10 μM of an ATPase domain of Hsc70, 1 mM of ATP-γ-S and Az (a phosphate salt form) were used. For competition studies between ATP-γ-S and Az, STD of the sample with 5 μM ATPase domain of Hsc70 and 500 μM ATP-γ-S was initially measured, and further titrated with Az up to 1 mM. The ratios of ATP-γ-S to Az were 1:0, 1:1, 1:1.5, and 1:2. All STD NMR spectra were obtained using 20 mM solutions of deuterated Tris buffer with 5% (v/v) DMSO-d6 (pD 7.2)."}, "[3]": {"tested_on": "Hsp70 level in HL-60 and K562 cells", "test": "Western blot of Hsp70 and Hsp90 levels", "type": "cell-based, human", "details": "cells treated 24 h", "description": "Because Az-O3-GD promotes caspase activation in leukemia cells, it was anticipated that procaspase-9, procaspase-3 and PARP would be cleaved in treated cells. To test this possibility, HL-60 and K562 cells were exposed to Az-O3-GD, along with Az and GD as controls and western blot analysis was then carried out. […] Although Az-O3-GD upregulates Hsp70, the presence of the Hsp70 inhibitor in this hybrid causes its cytotoxicity against leukemia cells to be higher than that of GD. Finally, we examined the effect of Az-O3-GD on AIF-mediated caspase-independent apoptosis. To this end, HL-60 and K562 cells were incubated with Az-O3-GD for 24 h.\nWestern blot analysis. […] peroxidase-conjugated goat anti-rabbit IgG (1:2000, Santa Cruz Bio Technology) and goat anti-mouse IgG (1:2000, Santa Cruz Bio Technology) were used as the secondary antibodies. The blots were developed by using a West-ZOL® plus Western Blot Detection System (Intron Biotechnology Inc., South Korea). Western blot signals were analyzed by using a G:BOX Chemi Fluorescent & Chemiluminescent Imaging System."}, "[4]": {"tested_on": "caspase activity of HL-60 and K562 cells", "test": "Caspase activity assay with Ac-DEVD-pNA in cell lysates", "type": "cell-based, human", "details": "lysates of cells treated 24 h", "description": "Because Az inhibits the association of Hsp70 with Apaf-1, caspase associated proteolytic activities should increase in cells treated with Az. To determine whether this event occurs, caspase activities of HL-60 and K562 cells treated with Az were measured by using the colorimetric substrate, Ac-DEVD-pNA (pNA, p-nitroaniline). […] We also examined whether leukemia cells are protected from the effect of Az by ZVAD-FMK (benzyloxycarbonyl-Val-Ala-Asp(OMe) fluoromethyl ketone, a cell-permeable inhibitor of pan-caspases). HL-60 and K562 cells were pre-incubated with ZVAD-FMK for 3 h and subsequently exposed to Az.\nHL-60 and K562 cells treated with each compound for 24 h were lysed in a buffer containing 50 mM HEPES (pH 7.4), 5 mM CHAPS and 5 mM DTT. Assay buffer containing 20 mM HEPES (pH 7.4), 0.01% CHAPS, 5 mM DTT and 2 mM EDTA was added to cell lysates. Caspase activity was measured in the absence or presence of acetyl-DEVD-pNA (200 μM) (Sigma-Aldrich) by using a microplate reader (monitored at 405 nm)."}, "[5]": {"target": "T2, interaction of Hsp70 with Apaf-1 in HL-60 and K562 cells (Homo sapiens, UniProt P0DMV8)", "T2 construct": "endogenous in cells; host or cells: HL-60 and K562 cells", "test": "Immunoprecipitation of Hsp70/Apaf-1 complex with Hsp70 antibody", "type": "cell-based", "details": "cells treated 24 h, co-immunoprecipitation", "description": "With this information in mind, we tested if Az enhances the cytochrome c release from mitochondria into the cytosol in leukemia cells. The levels of cytochrome c in cytosolic and mitochondrial fractions of HL-60 and K562 cells after treatment with Az were determined by using western blot analysis. […] We next determined if the binding of Hsp70 to Apaf-1 is suppressed by Az during apoptosis. For this purpose, HL-60 and K562 cells were exposed to Az, and a complex of Hsp70 and Apaf-1 was then immunoprecipitated with Hsp70 antibody.\nSupplementary Figure S9. Az blocks association of Hsp70 with Apaf-1. (a) HL-60 and K562 cells were treated with Az for 24 h, and the amount of Hsp70, Hsc70 and Apaf-1 was measured by western blot. […] (b) HL-60 and K562 cells were treated with Az for 24 h. Immunoprecipitation was performed with a Hsp70 antibody, and the amount of co-precipitated Apaf-1 was determined by western blot."}, "[6]": {"tested_on": "Ba/F3 cells producing imatinib-resistant mutant Bcr-Abl (T315I)", "test": "MTT assay, Ba/F3 cells producing mutant Bcr-Abl (T315I)", "type": "cell-based, murine", "details": "Mus musculus, BaF3, 24 h, read-out: IC50 values, cytotoxicity towards cells expressing mutant Abl", "description": "Next, the cytotoxic effects of Az on wild-type and mutant Bcr-Abl expressing cells were evaluated.\nas §1\nCells were treated with various concentrations of each compound for 24 h. Cell death was measured by using an MTT assay (mean ± s.d., n = 3)."}, "Jurkat cells": {"tested_on": "Jurkat cells", "test": "MTT assay, cell viability of Jurkat cells", "type": "cell-based", "details": "Homo sapiens, 48 h, mean ± s.d., n = 3, read-out: IC50 values of compounds for leukemia cells"}},
  "data": [
    {"smiles": "COc1ccc(-c2nc(-c3cc(C(F)(F)F)cc(C(F)(F)F)c3)n(Cc3ccc(C(=O)NCCOCCOCCN)cc3)c2-c2ccc(OC)cc2)cc1", "note": "[Az, apoptozole]", "values": [
      {"measurement": "IC50", "setting": "U937 cells", "result": "4.7 ± 0.77", "unit": "µM"},
      {"measurement": "IC50", "setting": "[1]", "result": "2 to 5", "unit": "µM"},
      {"measurement": "effect on binding of ATP to the ATPase domain", "setting": "[2]", "result": "blocks ATP binding"},
      {"measurement": "translational level of Hsp70", "setting": "[3]", "result": "does not affect the translational levels of Hsp70 and Hsp90"},
      {"measurement": "caspase activity of treated cells", "setting": "[4]", "result": "increase"},
      {"measurement": "interaction of Hsp70 with Apaf-1", "setting": "[5]", "result": "inhibits the interaction of Hsp70 with Apaf-1"},
      {"measurement": "IC50", "setting": "[6]", "result": 2.2, "unit": "µM"},
      {"measurement": "IC50", "setting": "Jurkat cells", "result": "3.1 ± 0.61", "unit": "µM"}
    ]}
  ]
}
